Laboratory results from PMC8217813, “Bridging Computational Vaccinology and Vaccine Development Through Systematic Identification, Characterization, and Downselection of Conserved and Variable Circumsporozoite Protein CD4 T Cell Epitopes From Diverse Plasmodium falciparum Strains” (Frontiers in Immunology, 2021).
Like-named read-outs stand apart in the source and are kept apart here. Peptide text beside a SMILES is read from it.

Tests used:
HLA B*0702 = target: T1, HLA B*0702 (Homo sapiens, UniProt P01889); assay: biochemical; type: binding; settings: allele B0702; cell-free competition with fluorescently labeled control peptide, fluorescence polarization at 72 hours
T1 construct: Pure Protein, LLC (ran the assay)

HLA A*0201 = target: T2, HLA A*0201 (Homo sapiens, UniProt P04439, D140Y/D185E/D98H/E176V/E277Q/G131W/G231S/I119V/I121R/I166T/I218V/L300P/L318F/N151K/N90K/P208A/P217A/Q86G/Q94H/R138H/R169H/T345S); assay: biochemical; type: binding; settings: allele A0201, cell-free competition with fluorescently labeled control peptide, fluorescence polarization at 72 hours; for IC50: read-out: IC50
T2 construct: Pure Protein, LLC (ran the assay)

HLA A*0301 = target: T3, HLA A*0301 (Homo sapiens, UniProt P04439); assay: In vitro class I HLA binding competition assay (fluorescence polarization); settings: allele A0301; cell-free competition with fluorescently labeled control peptide, fluorescence polarization at 72 hours
T3 construct: Pure Protein, LLC (ran the assay)

HLA-DRB1*0101 = target: T4, HLA-DRB1*0101 (Homo sapiens, UniProt P01903+P01911, A100R/D57E/F55L/F60I/F76Y/I96L/L162R/M171V/P40L/Q125E/R42F/V115G/Y59C); assay: In vitro class II HLA binding competition assay
T4 construct: purchased
Protocol: (§1) EpiVax conducted in vitro quantification of peptide-HLA binding affinity utilizing a competition assay format per the methodology described in ([35]). Briefly, a fluorescent-labeled, high-binding reference peptide and titrating concentrations of test peptide were incubated in a 96-well plate format with limiting concentrations of class II HLA monomers in aqueous buffer for 24-hours. Post incubation, the mixtures were moved to a 96-well plate coated with anti-HLA-DR antibody to capture HLA-peptide complexes. Time-resolved fluorescence measurement of the bound labeled reference peptide complex present in each mixture were detected with a europium-linked probe via fluorescent spectrophotometry using a SpectraMax M5 system. HLA binding affinity of each test peptide was expressed as the percent inhibition of reference peptide binding. Percent inhibition values (across the test peptide titration range) were used to calculate the half maximal inhibitory concentration (IC50) of each test peptide. For these studies, test peptides were assessed using a range of final concentrations from 100,000 nM to 100 nM and all peptides were reconstituted in dimethyl sulfoxide (DMSO).

HLA-DRB1*0701 = HLA-DRB1*0701 (Homo sapiens, UniProt P01903+P01911, A100R/A102G/A103Q/D57E/D86V/E43K/F76Y/K127E/L162R/M171V/P40G/Q125H/Q99D/R33Q/R42Y/R54Q/S133A/S66F/T210M/V115G/Y107V/Y59L/Y89S); assay: In vitro class II HLA binding competition assay
Protocol: as §1

HLA-DRB1*1501 = target: T5, HLA-DRB1*1501 (Homo sapiens, UniProt P01903+P01911); assay: In vitro class II HLA binding competition assay
T5 construct: purchased
Protocol: as §1

HLA-DRB1*1301 = HLA-DRB1*1301 (Homo sapiens, UniProt P01903+P01911, A100E/A169T/K41T/L162R/M171V/P40S/Q125H/Q178H/Q39Y/Q99D/R42S/S66N/T262R/W38E/Y61H); assay: In vitro class II HLA binding competition assay; settings: competition with fluorescent-labeled reference peptide, class II HLA monomers, 24-hours, test peptide 100,000 nM to 100 nM, time-resolved fluorescence
Protocol: as §1

HLA-DRB1*0801 = HLA-DRB1*0801 (Homo sapiens, UniProt P01903+P01911, A100R/A103L/A169T/D86S/F76Y/H45Y/I96F/K41T/L162R/M171V/P40S/Q125H/Q178H/Q39Y/Q99D/R218S/R42G/S66Y/V115G/W38E); assay: In vitro class II HLA binding competition assay; settings: competition with fluorescent-labeled reference peptide, class II HLA monomers, 24-hours, test peptide 100,000 nM to 100 nM, time-resolved fluorescence
Protocol: as §1

HLA-DRB1*0401 = target: T6, HLA-DRB1*0401 (Homo sapiens, UniProt P01903+P01911, A100K/A169T/F76Y/I96L/K127E/L162R/M171V/N62H/P40V/Q125Y/R42H/S133A/S149N/S66Y/V115G/V209L/W38E); assay: In vitro class II HLA binding competition assay
T6 construct: purchased
Protocol: as §1

[1] = test system: CD4 T cells co-cultured with autologous DCs from PBMCs; type: cell-based, human
[2] = DR1 donors N=5, positive = Stimulation Index ≥1.5-fold above baseline, ICCS, 5 µg/mL peptide
[3] = DR3 donors N=6, positive = Stimulation Index ≥1.5-fold above baseline, ICCS, 5 µg/mL peptide
[4] = DR4 donors N=10, positive = Stimulation Index ≥1.5-fold above baseline, ICCS, 5 µg/mL peptide
[5] = DR7 donors N=4, positive = Stimulation Index ≥1.5-fold above baseline, ICCS, 5 µg/mL peptide
[6] = DR8 donors N=4, positive = Stimulation Index ≥1.5-fold above baseline, ICCS, 5 µg/mL peptide
[7] = DR9 donors N=4, positive = Stimulation Index ≥1.5-fold above baseline, ICCS, 5 µg/mL peptide
[8] = DR11 donors N=4, positive = Stimulation Index ≥1.5-fold above baseline, ICCS, 5 µg/mL peptide
[9] = DR13 donors N=7, positive = Stimulation Index ≥1.5-fold above baseline, ICCS, 5 µg/mL peptide
[10] = DR15 donors N=7, positive = Stimulation Index ≥1.5-fold above baseline, ICCS, 5 µg/mL peptide

CC[C@H](C)[C@H](NC(=O)CNC(=O)[C@H](CC(N)=O)NC(=O)CNC(=O)[C@H](CS)NC(=O)[C@@H](NC(=O)[C@@H](NC(=O)[C@@H](N)CO)C(C)C)[C@@H](C)O)C(=O)N[C@@H](CCC(N)=O)C(=O)N[C@H](C(=O)O)C(C)C [Cluster 335_3D7] (H-SVTCGNGIQV-OH)
IC50 (nM) (HLA B*0702): Non-Binder | IC50 (HLA A*0201): 489 µM

CC[C@H](C)[C@H](NC(=O)[C@H](CO)NC(=O)[C@H](CO)NC(=O)[C@H](CC(N)=O)NC(=O)[C@@H](NC(=O)[C@@H](NC(=O)[C@H](CC(N)=O)NC(=O)[C@H](Cc1ccccc1)NC(=O)[C@@H](NC(=O)[C@@H](N)CO)C(C)C)C(C)C)C(C)C)C(=O)O [Cluster 376_3D7] (H-SVFNVVNSSI-OH)
IC50 (nM) (HLA B*0702): Non-Binder | IC50 (nM) (HLA A*0301): Non-Binder | IC50 (HLA A*0201): 342 µM

CC(C)C[C@H](NC(=O)[C@@H](NC(=O)[C@H](CCCNC(=N)N)NC(=O)[C@@H](NC(=O)[C@H](CC(N)=O)NC(=O)[C@H](CO)NC(=O)[C@H](CO)NC(=O)[C@H](CO)NC(=O)CNC(=O)[C@H](Cc1ccc(O)cc1)NC(=O)[C@H](CS)NC(=O)[C@H](CCC(N)=O)NC(=O)[C@H](Cc1ccc(O)cc1)NC(=O)[C@H](CCC(=O)O)NC(=O)[C@H](CCC(N)=O)NC(=O)[C@H](Cc1ccccc1)NC(=O)[C@H](CCCCN)NC(=O)[C@@H](N)CCCCN)[C@@H](C)O)C(C)C)C(=O)N[C@@H](CC(N)=O)C(=O)N[C@@H](CCC(=O)O)C(N)=O [Cluster C1] (H-KKFQEYQCYGSSSNTRVLNE-NH2)
IC50 (HLA-DRB1*0101; competition with fluorescent-labeled reference peptide, class II HLA monomers, 24-hours, test peptide 100,000 nM to 100 nM, time-resolved fluorescence): 50.1 µM | IC50 (HLA-DRB1*0701; competition with fluorescent-labeled reference peptide, class II HLA monomers, 24-hours, test peptide 100,000 nM to 100 nM, time-resolved fluorescence, read-out: IC50, DRB1*0701): 36.7 µM | IC50 (HLA-DRB1*1501; competition with fluorescent-labeled reference peptide, class II HLA monomers, 24-hours, test peptide 100,000 nM to 100 nM, time-resolved fluorescence, read-out: IC50, DRB1*1501): 1.77 µM

CC[C@H](C)[C@H](NC(C)=O)C(=O)N[C@@H](CCC(=O)O)C(=O)N[C@@H](CCC(N)=O)C(=O)N[C@@H](Cc1ccc(O)cc1)C(=O)N[C@@H](CC(C)C)C(=O)N[C@@H](CCCCN)C(=O)N[C@@H](CCCCN)C(=O)N[C@H](C(=O)N[C@@H](CCC(N)=O)C(=O)N[C@@H](Cc1ccc(O)cc1)C(=O)N[C@@H](CO)C(=O)N[C@@H](CC(C)C)C(=O)N[C@@H](CO)C(=O)N[C@H](C(=O)N[C@@H](CCC(=O)O)C(=O)N[C@@H](Cc1c[nH]c2ccccc12)C(=O)N[C@@H](CO)C(=O)N1CCC[C@H]1C(=O)N[C@@H](CS)C(N)=O)[C@@H](C)O)[C@@H](C)CC [ICS7] (Ac-IEQYLKKIQYSLSTEWSPC-NH2)
IC50 (HLA-DRB1*0101): > 100 µM | IC50 (HLA-DRB1*0701): 2.76 µM | IC50 (HLA-DRB1*1301): 17.9 µM | IC50 (HLA-DRB1*1501): 63.2 µM | IC50 (HLA-DRB1*0801): 6.09 µM | IC50 (HLA-DRB1*0401): 32.8 µM | median SI, IFN-γ recall responses [1]: 1.75 | Percentage of donors demonstrating IFN-γ responses, DR1 ([1]; DR1 donors N=5, positive = Stimulation Index ≥1.5-fold above baseline, ICCS after 14-day co-culture, 5 µg/mL peptide): 60% | Percentage of donors demonstrating IL-2 responses, DR1 [1, 2]: 60% | Percentage of donors demonstrating IL-4 responses, DR1 [1, 2]: 20% | Percentage of donors demonstrating IL-10 responses, DR1 [1, 2]: 0% | Percentage of donors demonstrating TNF-α responses, DR1 [1, 2]: 40% | Percentage of donors demonstrating IFN-γ responses, DR3 ([1]; DR3 donors N=6, positive = Stimulation Index ≥1.5-fold above baseline, ICCS after 14-day co-culture, 5 µg/mL peptide): 67% | Percentage of donors demonstrating IL-2 responses, DR3 [1, 3]: 33% | Percentage of donors demonstrating IL-4 responses, DR3 [1, 3]: 0% | Percentage of donors demonstrating IL-10 responses, DR3 [1, 3]: 0% | Percentage of donors demonstrating TNF-α responses, DR3 [1, 3]: 50% | Percentage of donors demonstrating IFN-γ responses, DR4 ([1]; DR4 donors N=10, positive = Stimulation Index ≥1.5-fold above baseline, ICCS after 14-day co-culture, 5 µg/mL peptide): 70% | Percentage of donors demonstrating IL-2 responses, DR4 [1, 4]: 70% | Percentage of donors demonstrating IL-4 responses, DR4 [1, 4]: 0% | Percentage of donors demonstrating IL-10 responses, DR4 [1, 4]: 10% | Percentage of donors demonstrating TNF-α responses, DR4 [1, 4]: 80% | Percentage of donors demonstrating IFN-γ responses, DR7 ([1]; DR7 donors N=4, positive = Stimulation Index ≥1.5-fold above baseline, ICCS after 14-day co-culture, 5 µg/mL peptide): 75% | Percentage of donors demonstrating IL-2 responses, DR7 [1, 5]: 75% | Percentage of donors demonstrating IL-4 responses, DR7 [1, 5]: 0% | Percentage of donors demonstrating IL-10 responses, DR7 [1, 5]: 25% | Percentage of donors demonstrating TNF-α responses, DR7 [1, 5]: 75% | Percentage of donors demonstrating IFN-γ responses, DR8 ([1]; DR8 donors N=4, positive = Stimulation Index ≥1.5-fold above baseline, ICCS after 14-day co-culture, 5 µg/mL peptide): 75% | Percentage of donors demonstrating IL-2 responses, DR8 [1, 6]: 75% | Percentage of donors demonstrating IL-4 responses, DR8 [1, 6]: 0% | Percentage of donors demonstrating IL-10 responses, DR8 [1, 6]: 0% | Percentage of donors demonstrating TNF-α responses, DR8 [1, 6]: 100% | Percentage of donors demonstrating IFN-γ responses, DR9 ([1]; DR9 donors N=4, positive = Stimulation Index ≥1.5-fold above baseline, ICCS after 14-day co-culture, 5 µg/mL peptide): 50% | Percentage of donors demonstrating IL-2 responses, DR9 [1, 7]: 75% | Percentage of donors demonstrating IL-4 responses, DR9 [1, 7]: 0% | Percentage of donors demonstrating IL-10 responses, DR9 [1, 7]: 0% | Percentage of donors demonstrating TNF-α responses, DR9 [1, 7]: 50% | Percentage of donors demonstrating IFN-γ responses, DR11 ([1]; DR11 donors N=4, positive = Stimulation Index ≥1.5-fold above baseline, ICCS after 14-day co-culture, 5 µg/mL peptide): 25% | Percentage of donors demonstrating IL-2 responses, DR11 [1, 8]: 25% | Percentage of donors demonstrating IL-4 responses, DR11 [1, 8]: 0% | Percentage of donors demonstrating IL-10 responses, DR11 [1, 8]: 0% | Percentage of donors demonstrating TNF-α responses, DR11 [1, 8]: 25% | Percentage of donors demonstrating IFN-γ responses, DR13 ([1]; DR13 donors N=7, positive = Stimulation Index ≥1.5-fold above baseline, ICCS after 14-day co-culture, 5 µg/mL peptide): 86% | Percentage of donors demonstrating IL-2 responses, DR13 [1, 9]: 57% | Percentage of donors demonstrating IL-4 responses, DR13 [1, 9]: 0% | Percentage of donors demonstrating IL-10 responses, DR13 [1, 9]: 14% | Percentage of donors demonstrating TNF-α responses, DR13 [1, 9]: 71% | Percentage of donors demonstrating IFN-γ responses, DR15 ([1]; DR15 donors N=7, positive = Stimulation Index ≥1.5-fold above baseline, ICCS after 14-day co-culture, 5 µg/mL peptide): 43% | Percentage of donors demonstrating IL-2 responses, DR15 [1, 10]: 57% | Percentage of donors demonstrating IL-4 responses, DR15 [1, 10]: 0% | Percentage of donors demonstrating IL-10 responses, DR15 [1, 10]: 14% | Percentage of donors demonstrating TNF-α responses, DR15 [1, 10]: 57%

CKMEKCSSV [369_3D7 (9)]
IC50 (nM) (HLA A*0201): Non-Binder
